Read-outs that look alike come from different tables or passages of the source.
Legend:
[1] = tested on: NCI-60 cancer cell lines; assay: NCI-60 cancer cell line drug screen (GI50, MGM); format: cell-based, human; conditions: for GI50: read-out: Antiproliferative Activities [GI50 (μM)]
Method: Cancer cells were incubated with the test compounds at five concentrations ranging from 100 μM to 10 nM for 48 h. […] The approximate average of GI50 values across the entire panel of NCI-60 cancer cell lines for each compound was recorded as the MGM value.

[2] = tested on: MYC protein expression in MCF-7 breast cancer cells; assay: Western blotting of MYC protein level in MCF-7 cells; format: cell-based, human
Outline: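 MCF-7 cells were exposed to compounds at 0.5, 1, 2 and 4 μM for 24 hours at 37° C. MYC was detected by immunoblot with ECL, using rabbit anti-MYC (1:1000) and anti-GAPDH (1:2000) as loading control.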

[3] = molecular target: T1, human topoisomerase I (Homo sapiens, UniProt P11387); conditions: relative topoisomerase I inhibition levels, previously determined, six levels (0 - 5, +++++ = 5); cited from earlier work
T1 sequence (P11387 1-765): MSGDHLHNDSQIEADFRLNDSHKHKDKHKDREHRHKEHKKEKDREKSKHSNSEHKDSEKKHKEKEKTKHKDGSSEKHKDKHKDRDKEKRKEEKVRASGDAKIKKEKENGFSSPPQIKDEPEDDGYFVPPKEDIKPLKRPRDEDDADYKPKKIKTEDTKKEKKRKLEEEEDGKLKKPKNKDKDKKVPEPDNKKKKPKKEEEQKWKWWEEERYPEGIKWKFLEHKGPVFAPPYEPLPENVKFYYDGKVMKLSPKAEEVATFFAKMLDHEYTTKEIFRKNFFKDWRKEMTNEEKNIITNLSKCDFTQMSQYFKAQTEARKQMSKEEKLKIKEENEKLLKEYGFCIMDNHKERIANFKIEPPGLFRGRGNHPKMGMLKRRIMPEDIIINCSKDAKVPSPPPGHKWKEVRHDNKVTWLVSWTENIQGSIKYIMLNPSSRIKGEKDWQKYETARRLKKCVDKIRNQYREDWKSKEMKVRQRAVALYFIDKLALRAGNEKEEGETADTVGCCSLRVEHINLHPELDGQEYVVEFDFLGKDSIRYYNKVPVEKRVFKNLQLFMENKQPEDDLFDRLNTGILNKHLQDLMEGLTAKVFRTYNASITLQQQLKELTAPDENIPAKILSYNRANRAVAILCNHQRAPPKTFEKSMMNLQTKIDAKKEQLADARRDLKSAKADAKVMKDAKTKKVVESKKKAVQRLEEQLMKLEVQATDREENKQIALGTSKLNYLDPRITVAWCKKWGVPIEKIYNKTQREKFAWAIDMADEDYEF

[4] = tested on: MycG4 (MycPu22 DNA); assay: 1H NMR titration of MycPu22 DNA; format: binding, human; conditions: 150 μM DNA, 25° C., pH 7, 100 mM K+
Source text: The binding interactions of six selected indenoisoquinolines with MycG4 were examined using ^1H NMR titration experiments in K^+-containing solution. […] The binding appeared to be in the medium-to-fast exchange rate on the NMR time-scale, as shown by the broadening of DNA proton peaks at lower drug equivalence (0.5 and 1) and the sharpening at higher drug equivalence (2 and 3). […] The MycG4 complexes of the five MycG4-interactive indenoisoquinolines were monomeric in nature as shown by native EMSA gels (FIG. 13).
All NMR experiments were conducted using a Bruker AV-500 spectrometer equipped with a Prodigy cryoprobe at 25° C. Watergate water suppression technique was used to suppress water signals. Briefly, each DNA sample was prepared to a final concentration of […] in 75 mM KCl, 25 mM phosphate buffer at pH 7.0, and containing 90/10% H2O/D2O. DNA samples were heated to 95° C. for 5 min then cooled slowly to room temperature for G4 formation. ^1H-NMR titrations were performed by adding increasing amounts of the compound (0.5 to 4 equivalents) to the oligonucleotide solution.

Compound: COc1cnc2c(c1)C(=O)c1c-2n(CCCNC(C)C)c(=O)c2cc(F)ccc12 [Compound 5]
- GI50 ([1]; Homo sapiens, 786-0, Renal Cancer, 786-0): 0.12 µM
- GI50 ([1]; Homo sapiens, A498, Renal Cancer, A498): 0.2 µM
- GI50 ([1]; Homo sapiens, A549, Non-Small Cell Lung Cancer, A549/ATCC): 0.07 µM
- GI50 ([1]; Homo sapiens, ACHN, Renal Cancer, ACHN): 0.06 µM
- GI50 ([1]; Homo sapiens, BT-549, Breast Cancer, BT-549): 0.66 µM
- GI50 ([1]; Homo sapiens, CCRF-CEM, Leukemia, CCRF-CEM): 0.11 µM
- GI50 ([1]; Homo sapiens, COLO 205, Colon Cancer, COLO 205): 0.09 µM
- GI50 ([1]; Homo sapiens, DU-145, Prostate Cancer, DU-145): 0.21 µM
- GI50 ([1]; Homo sapiens, EKVX, Non-Small Cell Lung Cancer, EKVX): 0.3 µM
- GI50 ([1]; Homo sapiens, HCC 2998, Colon Cancer, HCC-2998): 0.4 µM
- GI50 ([1]; Homo sapiens, HCT-15, Colon Cancer, HCT-15): 0.16 µM
- GI50 ([1]; Homo sapiens, HCT-116, Colon Cancer, HCT-116): 0.09 µM
- GI50 ([1]; Homo sapiens, HL-60, Leukemia, HL-60(TB)): 0.16 µM
- GI50 ([1]; Homo sapiens, HOP-62, Non-Small Cell Lung Cancer, HOP-62): 0.11 µM
- GI50 ([1]; Homo sapiens, HOP-92, Non-Small Cell Lung Cancer, HOP-92): 0.28 µM
- GI50 ([1]; Homo sapiens, HT-29, Colon Cancer, HT29): 0.07 µM
- GI50 ([1]; Homo sapiens, Hs-578T, Breast Cancer, HS 578T): 0.75 µM
- GI50 ([1]; Homo sapiens, IGROV-1, Ovarian Cancer, IGROV1): 0.21 µM
- GI50 ([1]; Homo sapiens, K562, Leukemia, K-562): 0.13 µM
- GI50 ([1]; Homo sapiens, KM12, Colon Cancer, KM12): 0.17 µM
- GI50 ([1]; Homo sapiens, LOX IMVI, Melanoma, LOX IMVI): 0.11 µM
- GI50 ([1]; Homo sapiens, Leukemia, SR): 0.08 µM
- GI50 ([1]; Homo sapiens, MCF7, Breast Cancer, MCF7): 0.03 µM
- GI50 ([1]; Homo sapiens, MDA-MB-231, Breast Cancer, MDA-MB-231/ATCC): 0.4 µM
- GI50 ([1]; Homo sapiens, MDA-MB-435, Melanoma, MDA-MB-435): 0.31 µM
- GI50 ([1]; Homo sapiens, MDA-MB-468, Breast Cancer, MDA-MB-468): 0.23 µM
- GI50 ([1]; Homo sapiens, MOLT-4, Leukemia, MOLT-4): 0.04 µM
- GI50 ([1]; Homo sapiens, Malme-3M, Melanoma, MALME-3M): 0.2 µM
- GI50 ([1]; Homo sapiens, Melanoma, M14): 0.23 µM
- GI50 ([1]; Homo sapiens, NCI-H23, Non-Small Cell Lung Cancer, NCI-H23): 0.18 µM
- GI50 ([1]; Homo sapiens, NCI-H226, Non-Small Cell Lung Cancer, NCI-H226): 0.15 µM
- GI50 ([1]; Homo sapiens, NCI-H322M, Non-Small Cell Lung Cancer, NCI-H322M): 0.32 µM
- GI50 ([1]; Homo sapiens, NCI-H460, Non-Small Cell Lung Cancer, NCI-H460): 0.04 µM
- GI50 ([1]; Homo sapiens, NCI-H522, Non-Small Cell Lung Cancer, NCI-H522): 0.04 µM
- GI50 ([1]; Homo sapiens, OVCAR-3, Ovarian Cancer, OVCAR-3): 0.19 µM
- GI50 ([1]; Homo sapiens, OVCAR-4, Ovarian Cancer, OVCAR-4): 0.3 µM
- GI50 ([1]; Homo sapiens, OVCAR-5, Ovarian Cancer, OVCAR-5): 0.28 µM
- GI50 ([1]; Homo sapiens, OVCAR-8, Ovarian Cancer, OVCAR-8): 0.14 µM
- GI50 ([1]; Homo sapiens, Ovarian Cancer, NCl/ADR-RES): 0.23 µM
- GI50 ([1]; Homo sapiens, Prostate Cancer, PC-3): 0.28 µM
- GI50 ([1]; Homo sapiens, RPMI-8226, Leukemia, RPMI-8226): 0.15 µM
- GI50 ([1]; Homo sapiens, RXF 393, Renal Cancer, RXF 393): 0.23 µM
- GI50 ([1]; Homo sapiens, Renal Cancer, U0-31): 0.08 µM
- GI50 ([1]; Homo sapiens, SF-268, CNS Cancer, SF-268): 0.21 µM
- GI50 ([1]; Homo sapiens, SF-295, CNS Cancer, SF-295): 0.09 µM
- GI50 ([1]; Homo sapiens, SF-539, CNS Cancer, SF-539): 0.25 µM
- GI50 ([1]; Homo sapiens, SK-MEL-2, Melanoma, SK-MEL-2): 0.51 µM
- GI50 ([1]; Homo sapiens, SK-MEL-5, Melanoma, SK-MEL-5): 0.16 µM
- GI50 ([1]; Homo sapiens, SK-MEL-28, Melanoma, SK-MEL-28): 0.94 µM
- GI50 ([1]; Homo sapiens, SK-OV-3, Ovarian Cancer, SK-OV-3): 0.22 µM
- GI50 ([1]; Homo sapiens, SN12C, Renal Cancer, SN12C): 0.16 µM
- GI50 ([1]; Homo sapiens, SNB-19, CNS Cancer, SNB-19): 0.18 µM
- GI50 ([1]; Homo sapiens, SNB-75, CNS Cancer, SNB-75): 0.22 µM
- GI50 ([1]; Homo sapiens, SW-620, Colon Cancer, SW-620): 0.12 µM
- GI50 ([1]; Homo sapiens, T47D, Breast Cancer, T-47D): 0.08 µM
- GI50 ([1]; Homo sapiens, TK-10, Renal Cancer, TK-10): 0.18 µM
- GI50 ([1]; Homo sapiens, U-251, CNS Cancer, U251): 0.08 µM
- GI50 ([1]; Homo sapiens, UACC-62, Melanoma, UACC-62): 0.27 µM
- GI50 ([1]; Homo sapiens, UACC-257, Melanoma, UACC-257): 0.47 µM
- mean GI50 across NCI-60 panel (MGM) ([1]; Homo sapiens, average of GI50 values across the entire panel of NCI-60 cancer cell lines): 165 nM
- anticancer activity (GI50 profile) in words ([1]; NCI-60 panel): more potent anticancer activities compared to compounds 4 and 20
- minimal effective concentration ([2]; Homo sapiens, MCF7, western blotting, MCF-7 cells, 0.5, 1, 2, and 4 μM, 24 hours, read-out: MYC Inhibition): 0.5 to 1 µM
- MYC-inhibitory effect (MYC protein, western blot) ([2]; MCF-7, 0.5, 1, 2, and 4 μM, 24 h): clear MYC-inhibitory effect
- Top1 Inhibiton [3]: ++ (medium inhibition, ++, MYC expression inhibited at 2.0 μM, or no clear dose-dependent MYC inhibition)
- binding to MycG4 by 1H NMR titration [4]: more specific binding to MycG4
